Legend:
[1] = target: Dipeptidyl peptidase 4 (Homo sapiens, UniProt P27487); assay: Inhibitory concentration against Dipeptidyl peptidase IV
[2] = target: Dipeptidyl peptidase 2 (Homo sapiens, UniProt Q9UHL4); assay: Inhibitory concentration against quiescent cell proline dipeptidase
[3] = Bioavailability in rat (dose 2 mg/kg p.o.); format: ADME, organism-based; conditions: in vivo, po
[4] = Half life in rat at 2 mpk po; format: ADME, organism-based; conditions: in vivo, 2 mg/kg
[5] = Plasma clearance in rat at 2 mpk po; format: ADME, organism-based; conditions: 2 mg/kg, read-out: Clearance
[6] = Half life in rat at 1 mpk iv; format: ADME, organism-based; conditions: in vivo, 1 mg/kg
[7] = Plasma clearance in rat at 1 mpk iv; format: ADME, organism-based; conditions: 1 mg/kg
[8] = Bioavailability in rat (dose 1 mg/kg i.v.); format: ADME, organism-based; conditions: in vivo, iv

Sequence of Dipeptidyl peptidase 4 (P27487 whole entry): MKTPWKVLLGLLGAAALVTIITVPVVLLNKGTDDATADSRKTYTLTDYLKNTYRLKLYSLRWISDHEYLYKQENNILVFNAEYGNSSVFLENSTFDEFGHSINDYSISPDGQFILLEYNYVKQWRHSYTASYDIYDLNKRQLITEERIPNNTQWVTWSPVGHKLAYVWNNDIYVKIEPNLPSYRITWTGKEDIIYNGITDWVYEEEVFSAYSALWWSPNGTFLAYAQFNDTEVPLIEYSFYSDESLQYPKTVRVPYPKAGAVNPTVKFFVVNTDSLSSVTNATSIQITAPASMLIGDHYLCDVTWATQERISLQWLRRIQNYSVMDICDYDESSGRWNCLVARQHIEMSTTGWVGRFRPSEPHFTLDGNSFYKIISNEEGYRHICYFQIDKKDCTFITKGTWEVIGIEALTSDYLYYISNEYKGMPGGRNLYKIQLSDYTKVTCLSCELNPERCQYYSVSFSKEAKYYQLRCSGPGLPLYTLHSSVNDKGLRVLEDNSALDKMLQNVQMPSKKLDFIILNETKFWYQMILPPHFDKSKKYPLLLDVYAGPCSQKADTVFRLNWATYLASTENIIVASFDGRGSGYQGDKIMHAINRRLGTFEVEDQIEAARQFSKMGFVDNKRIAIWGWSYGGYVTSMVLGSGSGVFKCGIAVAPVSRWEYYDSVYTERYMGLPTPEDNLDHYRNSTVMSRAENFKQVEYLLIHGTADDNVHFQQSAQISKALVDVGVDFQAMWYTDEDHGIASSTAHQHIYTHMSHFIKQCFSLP

Compound	IC50 [1]	IC50 [2]	further results
N[C@@H](CC(=O)N1CCSC1)Cc1ccoc1	46.9 µM		
N[C@@H](CC(=O)N1CCSC1)CC1CCCC1	27.5 µM		
N[C@@H](CC(=O)N1CCSC1)Cc1cccc(F)c1	2.03 µM	48.5 µM	
N[C@@H](CC(=O)N1CCSC1)Cc1ccsc1	5.7 µM		
N[C@@H](CC(=O)N1CCSC1)Cc1ccncc1	51 µM		
N[C@@H](CC(=O)N1CCSC1)Cc1ccc(C(F)(F)F)cc1	7.69 µM		
N[C@@H](CC(=O)N1CCSC1)Cc1ccccc1		> 100 µM	
N[C@@H](CC(=O)N1CCSC1)Cc1ccc(Cl)cc1	3.03 µM	36.2 µM	
N[C@@H](CC(=O)N1CCSC1)Cc1ccc(F)cc1F	0.589 µM	56.1 µM	
N[C@@H](CC(=O)N1CCSC1)Cc1ccc(Cl)c(Cl)c1	2.03 µM	48.5 µM	
N[C@@H](CC(=O)N1CCSC1)Cc1ccc([N+](=O)[O-])cc1	1.55 µM	24.3 µM	
N[C@@H](CC(=O)N1CCSC1)Cc1cccc(F)c1F	9.4 µM		
N[C@@H](CC(=O)N1CCSC1)Cc1ccc(F)c(F)c1	1.7 µM	33.9 µM	
N[C@@H](CC(=O)N1CCSC1)Cc1ccccn1	39.6 µM		
N#Cc1ccccc1C[C@@H](N)CC(=O)N1CCSC1	2.52 µM	> 100 µM	
N[C@@H](CC(=O)N1CCSC1)Cc1cccnc1	44.9 µM		

Compound	IC50 [1]	IC50 [2]	further results
Cc1ccccc1C[C@@H](N)CC(=O)N1CCSC1	0.981 µM	92.1 µM	
N[C@@H](CC(=O)N1CCSC1)Cc1cccc(C(F)(F)F)c1	3.61 µM	24.6 µM	
N[C@@H](CC(=O)N1CCSC1)Cc1ccccc1C(F)(F)F	2.26 µM	82.1 µM	
COc1cc(OC)cc(-c2nc(-c3ccc(Cl)cc3Cl)c(CN(C)C)c(N(C)C)n2)c1	0.0001 µM		
N[C@@H](CC(=O)N1CCSC1)Cc1ccccc1F	0.931 µM	49.7 µM	
N[C@@H](CC(=O)N1CCSC1)Cc1c(F)cccc1F	8.48 µM		
N[C@@H](CC(=O)N1CCSC1)CC1CCCCC1	33 µM		
N[C@H](CCc1ccccc1)CC(=O)N1CCSC1	16.5 µM		
N[C@@H](CC(=O)N1CCSC1)Cc1cc(F)c(F)cc1F			bioavailability [3]: 3%; half-life [4]: 66 min; CL/F [5]: 120 mL/min/kg; half-life [6]: 66 min; clearance [7]: 120 mL/min/kg; bioavailability [8]: 3%
N[C@@H](CC(=O)N1CCSC1)Cc1ccc(F)cc1	3.28 µM	67.6 µM	
N[C@@H](CC(=O)N1CCSC1)c1ccccc1	> 100 µM		
N#Cc1ccc(C[C@@H](N)CC(=O)N2CCSC2)cc1	14.9 µM		
N[C@@H](CC(=O)N1CCSC1)Cc1ccc(I)cc1	10.7 µM	5.78 µM	
N#Cc1cccc(C[C@@H](N)CC(=O)N2CCSC2)c1	8.95 µM	29.8 µM	
N[C@@H](CC(=O)N1CCSC1)Cc1cc(F)ccc1F	0.27 µM	77.6 µM	bioavailability [3]: 2%; half-life [4]: 30 min; CL/F [5]: 110 mL/min/kg; half-life [6]: 30 min; clearance [7]: 110 mL/min/kg; bioavailability [8]: 2%

— ChEMBL document CHEMBL1137853, “Discovery of potent and selective beta-homophenylalanine based dipeptidyl peptidase IV inhibitors” (Bioorg Med Chem Lett, 2004)
